This note sets out measurements from US8445674B2, “Heterocyclyl compounds” (Hoffmann-La Roche Inc, priority 2009, dated 2013).

The assay concerns the target T1, human chemokine receptor 2 isoform B (Homo sapiens, UniProt P41597).
T1 construct: host or cells: CHOK1-CCR2B-A5 cells (CHO-K1)
T1 sequence (P41597 1-360 isoform P41597-2): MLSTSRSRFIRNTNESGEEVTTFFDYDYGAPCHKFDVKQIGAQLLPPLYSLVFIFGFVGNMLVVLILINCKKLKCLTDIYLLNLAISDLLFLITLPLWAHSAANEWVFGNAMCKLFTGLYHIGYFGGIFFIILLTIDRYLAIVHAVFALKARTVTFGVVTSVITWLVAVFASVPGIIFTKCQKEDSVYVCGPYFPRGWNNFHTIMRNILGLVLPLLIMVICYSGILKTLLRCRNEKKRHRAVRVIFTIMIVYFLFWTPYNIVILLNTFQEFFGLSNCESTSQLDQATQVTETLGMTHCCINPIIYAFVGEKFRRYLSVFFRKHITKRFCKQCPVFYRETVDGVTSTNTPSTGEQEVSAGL
As to the kind of experiment: Calcium mobilization assay (FLIPR, antagonist activity against MCP-1). The settings on record: Ca mobilisation assay, CHOK1-CCR2B-A5 cells, inhibition of calcium increase induced by 20 nM MCP-1. Type of assay: cell-based. The procedure: Calcium Mobilization Assay
CHOK1-CCR2B-A5 cells (from Euroscreen) stably overexpressing the human chemokine receptor 2 isoform B were cultured in Nutrient Hams F12 medium supplemented with 5% FBS, 100 U/ml penicillin, 100 μg/ml streptomycin, 400 μg/ml G418 and 5 μg/ml puromycin.
For the assay cells were grown overnight in 384-well black clear flat bottom polystyrene plates (Costar) at 37° C. at 5% CO2. After washing with DMEM, 20 mM Hepes, 2.5 mM probenecid, 0.1% BSA (DMEM assay buffer) cells were loaded with 4 μM Fluo-4 in the same DMEM assay buffer for 2 hours at 30° C. Excess dye was removed and cells were washed with DMEM assay buffer. 384-well compound plates were prepared with DMEM assay buffer/0.5% DMSO with or without various concentrations of test compounds. Usually compounds were tested for agonist and antagonist activity.
Test compounds were added to the assay plate and agonist activity was monitored as fluorescence for 80 seconds with a FLIPR (488 nm excitation; 510-570 nm emission; Molecular Devices). After 20-30 min. of incubation at 30° C., 20 nM MCP-1 (R&D; Roche) was added and fluorescence was monitored again for 80 seconds. Increases in intracellular calcium are reported as maximum fluorescence after agonist exposure minus basal fluorescence before exposure. Antagonist activity is indicated as inhibitor concentration required for 50% inhibition of specific calcium increases.
For orientation: Calcium assays in cells follow changes in intracellular calcium, usually with a dye or a luminescent sensor.

Regarding `C[C@@H]1CN(CCCC(=O)N2CCC3(CC3)[C@H](O)C2)C(=O)C=CN1c1ccc(C(F)(F)F)c(Cl)c1` [Example 65, (R)-1-(3-Chloro-4-trifluoromethyl-phenyl)-4-[4-((S)-4-hydroxy-6-aza-spiro[2.5]oct-6-yl)-4-oxo-butyl]-2-methyl-1,2,3,4-tetrahydro-[1,4]diazepin-5-one], the half-maximal inhibitory concentration (IC50) turned out to be 610 nM. As for `O=C1CCN(c2ccc(OC(F)(F)F)c(Cl)c2)CCN1CCCC(=O)N1CCC2(CC2)[C@H](O)C1` [Example 122, 1-(3-Chloro-4-trifluoromethoxy-phenyl)-4-[4-((S)-4-hydroxy-6-aza-spiro[2.5]oct-6-yl)-4-oxo-butyl]-[1,4]diazepan-5-one], the half-inhibitory concentration (IC50) came out at 167 nM. Under `COC(=O)C(CC(=O)N1CCC2(CC2)[C@H](O)C1)N1CCN(C(=O)/C=C/c2ccc(Cl)c(Cl)c2)CCC1=O` (stereo partly drawn) [Example 7, (R,S)-2-{4-[(E)-3-(3,4-Dichloro-phenyl)-acryloyl]-7-oxo-[1,4]diazepan-1-yl}-4-((S)-4-hydroxy-6-aza-spiro[2.5]oct-6-yl)-4-oxo-butyric acid methyl ester] stands 453 nM; under `C[C@H]1C(=O)N([C@H](CO)CCC(=O)N2CCC3(CC3)[C@H](O)C2)CCN1C(=O)N(C)c1ccc(OC(F)(F)F)c(Cl)c1` [Example 57, (S)-4-[(S)-4-((S)-4-Hydroxy-6-aza-spiro[2.5]oct-6-yl)-1-hydroxymethyl-4-oxo-butyl]-2-methyl-3-oxo-piperazine-1-carboxylic acid (3-chloro-4-trifluoromethoxy-phenyl)-methyl-amide], 2570 nM; under `COC(=O)C(CC(=O)N(C)C)N1CCN(C(=O)/C=C/c2ccc(Cl)c(Cl)c2)CCC1=O` (racemic) [Example 8, rac-(2-{4-[(E)-3-(3,4-Dichloro-phenyl)-acryloyl]-7-oxo-[1,4]diazepan-1-yl}-N,N-dimethyl-succinamic acid methyl ester)], 863 nM. For `C[C@H]1C(=O)N(CCCC(=O)N2CCC3(CC3)[C@H](O)C2)CCN1C(=O)Nc1ccc(OC(F)(F)F)cc1` [Example 30, (S)-4-[4-((S)-4-Hydroxy-6-aza-spiro[2.5]oct-6-yl)-4-oxo-butyl]-2-methyl-3-oxo-piperazine-1-carboxylic acid (4-trifluoromethoxy-phenyl)-amide] the value was 20.4 nM. Under `C[C@H]1C(=O)N(CCCC(=O)N2CCC3(CC2)CNC(=O)O3)CCN1C(=O)Nc1cccc(Cl)c1` [Example 107, (S)-2-Methyl-3-oxo-4-[4-oxo-4-(2-oxo-1-oxa-3,8-diaza-spiro[4.5]dec-8-yl)-butyl]-piperazine-1-carboxylic acid (3-chloro-phenyl)-amide] stands 4870 nM. In the case of `C[C@H]1C(=O)N(CCCC(=O)N2CCCC(O)C2)CCN1C(=O)Nc1cccc(Cl)c1` (mixture of isomers) [Example 112, (S)-4-[4-((RS)-3-Hydroxy-piperidin-1-yl)-4-oxo-butyl]-2-methyl-3-oxo-piperazine-1-carboxylic acid (3-chloro-phenyl)-amide], the half-inhibitory concentration (IC50) is 3200 nM. Under `C[C@H]1C(=O)N(C[C@@H](O)CC(=O)N2CCC3(CC3)[C@H](O)C2)CCN1c1ccc(C(F)(F)F)c(Cl)c1` [Example 131, (S)-4-(3-Chloro-4-trifluoromethyl-phenyl)-1-[(S)-2-hydroxy-4-((S)-4-hydroxy-6-aza-spiro[2.5]oct-6-yl)-4-oxo-butyl]-3-methyl-piperazin-2-one] stands 13.1 nM; under `C[C@H]1C(=O)N(CCCC(=O)N2CCC3(CCCO3)CC2)CCN1C(=O)Nc1cccc(Cl)c1` [Example 108, (S)-2-Methyl-4-[4-(1-oxa-8-aza-spiro[4.5]dec-8-yl)-4-oxo-butyl]-3-oxo-piperazine-1-carboxylic acid (3-chloro-phenyl)-amide], 4070 nM. `C[C@H]1C(=O)N(CC(O)CC(=O)N2CCC3(CC3)[C@H](O)C2)CCN1C(=O)Nc1ccc(C(F)(F)F)c(Cl)c1` (stereo partly drawn) [Example 41, (S)-4-[(R,S)-2-Hydroxy-4-((S)-4-hydroxy-6-aza-spiro[2.5]oct-6-yl)-4-oxo-butyl]-2-methyl-3-oxo-piperazine-1-carboxylic acid (3-chloro-4-trifluoromethyl-phenyl)-amide]: the half-maximal inhibitory concentration (IC50) was 5.6 nM.

Consider `C[C@H]1C(=O)N(CCC(F)C(=O)N2CCC3(CC3)[C@H](O)C2)CCN1C(=O)Nc1ccc(C(F)(F)F)c(Cl)c1` (single isomer, unassigned) [Example 137, (S)-4-[(R or S)-3-fluoro-4-((S)-4-hydroxy-6-aza-spiro[2.5]oct-6-yl)-4-oxo-butyl]-2-methyl-3-oxo-piperazine-1-carboxylic acid (3-chloro-4-trifluoromethyl-phenyl)-amide], for which the IC50 came out at 10.5 nM.

For `C[C@H]1C(=O)N(CCC(=O)N2CCCCC2)CCN1C(=O)Nc1ccc(Cl)c(Cl)c1` [Example 16, (S)-2-Methyl-3-oxo-4-(3-oxo-3-piperidin-1-yl-propyl)-piperazine-1-carboxylic acid (3,4-dichloro-phenyl)-amide], the IC50 is 4110 nM. For `CN(C)C(=O)C(CCO)N1CCN(C(=O)/C=C/c2ccc(Cl)c(Cl)c2)CCC1=O` (racemic) [Example 3, (rac)-2-{4-[(E)-3-(3,4-Dichloro-phenyl)-acryloyl]-7-oxo-[1,4]diazepan-1-yl}-4-hydroxy-N,N-dimethyl-butyramide] the value was 563 nM. For `C[C@H]1C(=O)N(CCCC(=O)N2CCC(C)(C)[C@H](O)C2)CCN1C(=O)Nc1ccc(Cl)c(Cl)c1` [Example 38, (S)-4-[4-((S)-3-hydroxy-4,4-dimethyl-piperidin-1-yl)-4-oxo-butyl]-2-methyl-3-oxo-piperazine-1-carboxylic acid (3,4-dichloro-phenyl)-amide] the value was 21.9 nM; for `O=C(/C=C/c1ccc(Cl)c(Cl)c1)N1CCC(=O)N(CCC(=O)N2CCC(O)(c3ccccc3)CC2)CC1` [Example 72, 1-[(E)-3-(3,4-Dichloro-phenyl)-acryloyl]-4-[3-(4-hydroxy-4-phenyl-piperidin-1-yl)-3-oxo-propyl)-[1,4]diazepan-5-one], 162 nM; for `C[C@H]1C(=O)N(CCC(F)C(=O)N2CCC3(CC3)[C@H](O)C2)CCN1C(=O)Nc1ccc(C(F)(F)F)c(Cl)c1` (stereo partly drawn) [Example 136, (S)-4-[(R,S)-3-Fluoro-4-((S)-4-hydroxy-6-aza-spiro[2.5]oct-6-yl)-4-oxo-butyl]-2-methyl-3-oxo-piperazine-1-carboxylic acid (3-chloro-4-trifluoromethyl-phenyl)-amide], 4.7 nM.

In the case of `C[C@H]1C(=O)N(CCC(=O)N2CC[C@H](F)[C@@H](O)C2)CCN1C(=O)Nc1ccc(Cl)c(Cl)c1` (mixture of isomers) [Example 23, (S)-4-[3-((3SR,4SR)-4-Fluoro-3-hydroxy-piperidin-1-yl)-3-oxo-propyl]-2-methyl-3-oxo-piperazine-1-carboxylic acid (3,4-dichloro-phenyl)-amide], the IC50 is 3860 nM.

Consider `C[C@H]1C(=O)N(CCC(C)(C)C(=O)N2CCC3(CC3)[C@H](O)C2)CCN1C(=O)Nc1ccc(C(F)(F)F)c(Cl)c1` [Example 50, (S)-4-[4-((S)-4-Hydroxy-6-aza-spiro[2.5]oct-6-yl)-3,3-dimethyl-4-oxo-butyl]-2-methyl-3-oxo-piperazine-1-carboxylic acid (3-chloro-4-trifluoromethyl-phenyl)-amide], for which the IC50 came out at 1140 nM.

By IC50 is commonly meant the concentration that gives 50% inhibition.
